In the supplement of paper PMC10307832:

Assays:
Assay in all cases: relative viability (nuclei count vs DMSO), 5 days (fraction); higher = more cells survive
NCI-H1355 = tested on: NCI-H1355
In short: (§1)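 Lung cancer cell lines were pin-tool dosed in 1536-well plates on the day after seeding, with either a lone drug or a fixed anchor-drug dose plus five library-drug doses (not always all listed) in √10 steps. Nuclei were counted on 4× images after 5 days. Relative viability is the ratio of treated-well to vehicle-well nuclei counts, with each value a median of duplicate plates.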

LK-2 = tested on: LK-2
In short: as §1

NCI-H1944 = tested on: NCI-H1944
In short: as §1

PC-3 [JPC-3] = tested on: PC-3 [JPC-3]
In short: as §1

NCI-H838 = tested on: NCI-H838
In short: as §1

NCI-H650 = tested on: NCI-H650
In short: as §1

NCI-H661 = tested on: NCI-H661
In short: as §1

ChaGo-K-1 = tested on: ChaGo-K-1
In short: as §1

BEN = tested on: BEN
In short: as §1

NCI-H1975 = tested on: NCI-H1975
In short: as §1

LU99A = tested on: LU99A
In short: as §1

LXF-289 = tested on: LXF-289
In short: as §1

NCI-H2342 = tested on: NCI-H2342
In short: as §1

NCI-H2087 = tested on: NCI-H2087
In short: as §1

LC-2-ad = tested on: LC-2-ad
In short: as §1

SK-MES-1 = tested on: SK-MES-1
In short: as §1

NCI-H1651 = tested on: NCI-H1651
In short: as §1

NCI-H596 = tested on: NCI-H596
In short: as §1

NCI-H1666 = tested on: NCI-H1666
In short: as §1

LCLC-97TM1 = tested on: LCLC-97TM1
In short: as §1

HCC-78 = tested on: HCC-78
In short: as §1

NCI-H358 = tested on: NCI-H358
In short: as §1

## Cc1sc2c(c1C)C(c1ccc(Cl)cc1)=N[C@@H](CC(=O)OC(C)(C)C)c1nnc(C)n1-2 [JQ1] + COc1cc2c(Oc3ccc(NC(=O)C4(C(=O)Nc5ccc(F)cc5)CC4)cc3F)ccnc2cc1OCCCN1CCOCC1 [Foretinib] (partner 0.25 µM)
NCI-H1355; first compound 0.04 µM
  relative viability: 0.925
NCI-H1355; first compound 0.1265 µM
  relative viability: 0.936
NCI-H1355; first compound 0.4 µM
  relative viability: 0.735
NCI-H1355; first compound 1.265 µM
  relative viability: 0.677
NCI-H1355; first compound 4 µM
  relative viability: 0.562
LK-2; first compound 0.04 µM
  relative viability: 1.21
LK-2; first compound 0.1265 µM
  relative viability: 1.04
LK-2; first compound 0.4 µM
  relative viability: 0.325
LK-2; first compound 1.265 µM
  relative viability: 0.226
LK-2; first compound 4 µM
  relative viability: 0.221
NCI-H1944; first compound 0.04 µM
  relative viability: 0.797
NCI-H1944; first compound 0.1265 µM
  relative viability: 0.792
NCI-H1944; first compound 0.4 µM
  relative viability: 0.513
NCI-H1944; first compound 1.265 µM
  relative viability: 0.441
NCI-H1944; first compound 4 µM
  relative viability: 0.425
PC-3 [JPC-3]; first compound 0.04 µM
  relative viability: 1.06
PC-3 [JPC-3]; first compound 0.1265 µM
  relative viability: 1.05
PC-3 [JPC-3]; first compound 0.4 µM
  relative viability: 0.75
PC-3 [JPC-3]; first compound 1.265 µM
  relative viability: 0.74
PC-3 [JPC-3]; first compound 4 µM
  relative viability: 0.48
NCI-H838; first compound 0.04 µM
  relative viability: 1.08
NCI-H838; first compound 0.1265 µM
  relative viability: 0.703
NCI-H838; first compound 0.4 µM
  relative viability: 0.801
NCI-H838; first compound 1.265 µM
  relative viability: 0.31
NCI-H838; first compound 4 µM
  relative viability: 0.285
NCI-H650; first compound 0.04 µM
  relative viability: 0.996
NCI-H650; first compound 0.1265 µM
  relative viability: 0.717
NCI-H650; first compound 0.4 µM
  relative viability: 0.687
NCI-H650; first compound 1.265 µM
  relative viability: 0.385
NCI-H650; first compound 4 µM
  relative viability: 0.294
NCI-H661; first compound 0.04 µM
  relative viability: 1.04
NCI-H661; first compound 0.1265 µM
  relative viability: 0.945
NCI-H661; first compound 0.4 µM
  relative viability: 1.03
NCI-H661; first compound 1.265 µM
  relative viability: 0.7
NCI-H661; first compound 4 µM
  relative viability: 0.668
ChaGo-K-1; first compound 0.04 µM
  relative viability: 0.95
ChaGo-K-1; first compound 0.1265 µM
  relative viability: 0.827
ChaGo-K-1; first compound 0.4 µM
  relative viability: 0.929
ChaGo-K-1; first compound 1.265 µM
  relative viability: 0.7
ChaGo-K-1; first compound 4 µM
  relative viability: 0.583
BEN; first compound 0.04 µM
  relative viability: 0.482
BEN; first compound 0.1265 µM
  relative viability: 0.529
BEN; first compound 0.4 µM
  relative viability: 0.495
BEN; first compound 1.265 µM
  relative viability: 0.327
BEN; first compound 4 µM
  relative viability: 0.262
NCI-H1975; first compound 0.04 µM
  relative viability: 0.916
NCI-H1975; first compound 0.1265 µM
  relative viability: 0.731
NCI-H1975; first compound 0.4 µM
  relative viability: 0.713
NCI-H1975; first compound 1.265 µM
  relative viability: 0.541
NCI-H1975; first compound 4 µM
  relative viability: 0.353
LU99A; first compound 0.04 µM
  relative viability: 0.821
LU99A; first compound 0.1265 µM
  relative viability: 0.85
LU99A; first compound 0.4 µM
  relative viability: 0.559
LU99A; first compound 1.265 µM
  relative viability: 0.374
LU99A; first compound 4 µM
  relative viability: 0.304
LXF-289; first compound 0.04 µM
  relative viability: 0.955
LXF-289; first compound 0.1265 µM
  relative viability: 0.978
LXF-289; first compound 0.4 µM
  relative viability: 0.762
LXF-289; first compound 1.265 µM
  relative viability: 0.758
LXF-289; first compound 4 µM
  relative viability: 0.69
NCI-H2342; first compound 0.04 µM
  relative viability: 1.09
NCI-H2342; first compound 0.1265 µM
  relative viability: 0.843
NCI-H2342; first compound 0.4 µM
  relative viability: 1.08
NCI-H2342; first compound 1.265 µM
  relative viability: 0.91
NCI-H2342; first compound 4 µM
  relative viability: 0.824
NCI-H2087; first compound 0.04 µM
  relative viability: 1.06
NCI-H2087; first compound 0.1265 µM
  relative viability: 0.997
NCI-H2087; first compound 0.4 µM
  relative viability: 0.766
NCI-H2087; first compound 1.265 µM
  relative viability: 0.518
NCI-H2087; first compound 4 µM
  relative viability: 0.479
LC-2-ad; first compound 0.04 µM
  relative viability: 0.809
LC-2-ad; first compound 0.1265 µM
  relative viability: 0.625
LC-2-ad; first compound 0.4 µM
  relative viability: 0.538
LC-2-ad; first compound 1.265 µM
  relative viability: 0.359
LC-2-ad; first compound 4 µM
  relative viability: 0.266
SK-MES-1; first compound 0.04 µM
  relative viability: 0.817
SK-MES-1; first compound 0.1265 µM
  relative viability: 0.642
SK-MES-1; first compound 0.4 µM
  relative viability: 0.675
SK-MES-1; first compound 1.265 µM
  relative viability: 0.359
SK-MES-1; first compound 4 µM
  relative viability: 0.333
NCI-H1651; first compound 0.04 µM
  relative viability: 0.904
NCI-H1651; first compound 0.1265 µM
  relative viability: 0.787
NCI-H1651; first compound 0.4 µM
  relative viability: 0.625
NCI-H1651; first compound 1.265 µM
  relative viability: 0.352
NCI-H1651; first compound 4 µM
  relative viability: 0.365
NCI-H596; first compound 0.04 µM
  relative viability: 0.951
NCI-H596; first compound 0.1265 µM
  relative viability: 0.61
NCI-H596; first compound 0.4 µM
  relative viability: 0.466
NCI-H596; first compound 1.265 µM
  relative viability: 0.322
NCI-H596; first compound 4 µM
  relative viability: 0.225
NCI-H1666; first compound 0.04 µM
  relative viability: 0.855
NCI-H1666; first compound 0.1265 µM
  relative viability: 0.924
NCI-H1666; first compound 0.4 µM
  relative viability: 0.818
NCI-H1666; first compound 1.265 µM
  relative viability: 0.634
NCI-H1666; first compound 4 µM
  relative viability: 0.653
LCLC-97TM1; first compound 0.04 µM
  relative viability: 0.909
LCLC-97TM1; first compound 0.1265 µM
  relative viability: 0.949
LCLC-97TM1; first compound 0.4 µM
  relative viability: 0.823
LCLC-97TM1; first compound 1.265 µM
  relative viability: 0.617
LCLC-97TM1; first compound 4 µM
  relative viability: 0.4
HCC-78; first compound 0.04 µM
  relative viability: 0.557
HCC-78; first compound 0.1265 µM
  relative viability: 0.506
HCC-78; first compound 0.4 µM
  relative viability: 0.495
HCC-78; first compound 1.265 µM
  relative viability: 0.509
HCC-78; first compound 4 µM
  relative viability: 0.453
NCI-H358; first compound 0.04 µM
  relative viability: 0.686
NCI-H358; first compound 0.1265 µM
  relative viability: 0.83
NCI-H358; first compound 0.4 µM
  relative viability: 0.685
NCI-H358; first compound 1.265 µM
  relative viability: 0.259
NCI-H358; first compound 4 µM
  relative viability: 0.309
